Laboratory results from US20210236582A1, “ANTIMICROBIAL COMPOSITION BASED ON POLYPHENOLS AND POLYSACCHARIDES, METHOD FOR PREPARING THEREOF AND USE OF THE SAME” (priority 2018, published 2021).
Values after ≈ are worked out from the molar mass of the structure shown.

Legend:
[1] = test system: Influenza A/Puerto-Rico/8/34 (H1N1) virus; assay type: cell-based; settings: for Antiviral activity against A/PR8 (H1N1) virus ΔlgTCID50 av: pronounced antiviral activity ≥ 1.50
[2] = in vitro; settings: dog
[3] = test system: MDCK ECACC cell line; settings: MDCK ECACC cells, 48 h incubation, MTS

| Molecule | Antiviral activity against A/PR8 (H1N1) virus ΔlgTCID50 av [1] | CC50 at 48 h [2] [µg/mL] | Antiviral activity against A/PR8 (H1N1) virus IC50 av ([1]; MDCK ECACC cells, assessed after 48 h by CPE and HAR) | Cytotoxicity CC50 av [3] [µg/mL] |
| --- | --- | --- | --- | --- |
| Cc1cc2c(C(C)C)c(O)c(O)cc2c(O)c1-c1c(C)cc2c(C(C)C)c(O)c(O)cc2c1O [Apogossypol, apogossypol] | 0.50 | 9.4 (≈ 20.3 µM) | – | – |
| gossypol acetic acid | 1.32 | – | 0.0012 | 3.9 |
